Data from US12178839B2, “Anti-obesity agent, pollakiuria improving agent, and autonomic nervous activity regulator” (ASAHI GROUP HOLDINGS, LTD., priority 2018, dated 2024).
Ends that are not written are not given here.

Tested on: Male Wistar rats
Assay: Rat spontaneous urination test (metabolism cage), Test Example 6
Type: in vivo
Conditions: aqueous 0.1 mg/mL LNDP solution as drinking for 7 days
Experimental: It was confirmed from Test Example 2 that LNDP promotes the efferent hypogastric nerve activity, and it was confirmed from Test Example 3 that LNDP inhibits the efferent the pelvic splanchnic nerve activity. Influence on the bladder, which is one of the internal organs dominated by these nerves, was therefore investigated.
Male Wistar rats which are 13 weeks old were received, and quarantined and acclimated in a thermostat animal room at 18 to 28° C. in a cycle including a 12-hour light period and a 12-hour dark period for 1 week, and ten 14- to 16-week-old rats per group were tested. An aqueous 0.1 mg/mL LNDP solution or water was ingested from drinking for 7 days, and the urination amount was measured as weight with an electronic balance installed under a urine-collecting opening in raising with a metabolism cage. The weight data of the electronic balance every minute were automatically inputted into a computer. […] The total urination amount and the frequency of urination per day were found, and the urine amount per one time of urination (=the total urination amount per day/the frequency of urination per day) was calculated as to an individual of each group. […] As to the comparison of the test substance and ingestion days with respect to each measured value, two-way analysis of variance (two-way ANOVA) with replication was performed.

NIPPLTQTPVVVPPFLQPE [LNDP, Asn-Ile-Pro-Pro-Leu-Thr-Gln-Thr-Pro-Val-Val-Val-Pro-Pro-Phe-Leu-Gln-Pro-Glu]
significant difference in change in body weight vs water ingestion group: not observed | significant difference in the general symptoms vs water ingestion group: not observed
